From ChEMBL document CHEMBL1201862, “PubChem BioAssay data set” (2004) come the findings set out here.

Assay [1] addresses Casein kinase I isoform delta (Homo sapiens, UniProt P48730). It counts as functional.
Assay [2] concerns the target Serine/threonine-protein kinase pim-1 (Homo sapiens, UniProt P11309). Type of assay: functional.
For assay [3], the target named is Mitogen-activated protein kinase 14 (Homo sapiens, UniProt Q16539). Type of assay: functional.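 Also: part of a kinome-wide panel, MAPK14 entry.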
Assay [4] has as its target Macrophage colony-stimulating factor 1 receptor (Homo sapiens, UniProt P07333). It counts as functional.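 Also: value comes from the Navigating the Kinome screening panel, CSF1R member.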
For assay [5], the target named is Cyclin-dependent kinase 19 (Homo sapiens, UniProt Q9BWU1). The assay can be described thus: Navigating the Kinome. Panel member name: CDC2L6. Type of assay: functional.
The target in assay [6] is Cyclin-dependent kinase 8 (Homo sapiens, UniProt P49336). The assay can be described thus: Navigating the Kinome. Panel member name: CDK8. Type of assay: functional.
Assay [7] deals with cAMP-dependent protein kinase catalytic subunit alpha (Homo sapiens, UniProt P17612). It counts as functional.
Assay [8] addresses Aurora kinase A (Homo sapiens, UniProt O14965). Type of assay: functional.
Assay [9] concerns the target Protein kinase C theta type (Homo sapiens, UniProt Q04759). The assay can be described thus: Navigating the Kinome. Panel member name: PRKCQ. Type of assay: functional.
Assay [10] has as its target Vascular endothelial growth factor receptor 2 (Homo sapiens, UniProt P35968). Type of assay: functional.
Assay [11] addresses Dual specificity protein kinase CLK4 (Homo sapiens, UniProt Q9HAZ1). It counts as functional.
Assay [12] concerns the target Dual specificity tyrosine-phosphorylation-regulated kinase 1A (Homo sapiens, UniProt Q13627). It counts as functional.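 Also: measured against DYRK1A as one member of a broad kinome profiling panel.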
Assay [13] concerns the target Leucine-rich repeat serine/threonine-protein kinase 2 (Homo sapiens, UniProt Q5S007). It counts as functional.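 Also: value from a broad kinome-wide panel profiling study in which LRRK2 was one of the kinases tested.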
Assay [14] addresses Cyclin-dependent kinase 9 (Homo sapiens, UniProt P50750). It counts as functional.
Assay [15] concerns the target Mitogen-activated protein kinase kinase kinase kinase 4 (Homo sapiens, UniProt O95819). It counts as functional.
Assay [16] deals with Platelet-derived growth factor receptor beta (Homo sapiens, UniProt P09619). It counts as functional.
The test system of assay [17] is HEK293. The assay can be described thus: cells. The note with it: Homo sapiens.
Assay [18] concerns the target Protein disulfide-isomerase (Homo sapiens, UniProt P07237). The assay is described as follows: PDI inhibitors, insulin aggregation turbidity, dose response, biochemical, absorbance, cherry-picked samples (AID 602350). It counts as functional.
The test system of assay [19] is HEK293. The assay is described as follows: cells. To be noted: Homo sapiens. This is another data set of the same source.
The test system of assay [20] is Vero. The assay can be described thus: cells. The note with it: Chlorocebus sabaeus. Type of assay: functional.
A short description of assay [21]: cytotoxicity toward NIH3T3 fibroblasts, dose response, counter-screen, cell-based, ATP luminescence, mouse fibroblasts (AID 2010).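 Also: cells exposed to compound for about 90 hours before reading.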 Type of assay: functional. For orientation: Counterscreens check selectivity or assay interference.
The target of assay [22] is Paired box protein Pax-8 (Homo sapiens, UniProt Q06710). The assay is described as follows: inhibitors of PAX8-driven TPO luciferase reporter, dose response, RMG-I cells, cherry-pick (AID 687027).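 Also: luciferase reporter driven by Pax8 target thyroperoxidase promoter measured by SteadyGlo luminescence.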 Type of assay: functional, cell-based.
The target in assay [23] is T1, Protein RecA (Mycobacterium tuberculosis, UniProt P9WHJ3).
T1 sequence (P9WHJ3 whole entry): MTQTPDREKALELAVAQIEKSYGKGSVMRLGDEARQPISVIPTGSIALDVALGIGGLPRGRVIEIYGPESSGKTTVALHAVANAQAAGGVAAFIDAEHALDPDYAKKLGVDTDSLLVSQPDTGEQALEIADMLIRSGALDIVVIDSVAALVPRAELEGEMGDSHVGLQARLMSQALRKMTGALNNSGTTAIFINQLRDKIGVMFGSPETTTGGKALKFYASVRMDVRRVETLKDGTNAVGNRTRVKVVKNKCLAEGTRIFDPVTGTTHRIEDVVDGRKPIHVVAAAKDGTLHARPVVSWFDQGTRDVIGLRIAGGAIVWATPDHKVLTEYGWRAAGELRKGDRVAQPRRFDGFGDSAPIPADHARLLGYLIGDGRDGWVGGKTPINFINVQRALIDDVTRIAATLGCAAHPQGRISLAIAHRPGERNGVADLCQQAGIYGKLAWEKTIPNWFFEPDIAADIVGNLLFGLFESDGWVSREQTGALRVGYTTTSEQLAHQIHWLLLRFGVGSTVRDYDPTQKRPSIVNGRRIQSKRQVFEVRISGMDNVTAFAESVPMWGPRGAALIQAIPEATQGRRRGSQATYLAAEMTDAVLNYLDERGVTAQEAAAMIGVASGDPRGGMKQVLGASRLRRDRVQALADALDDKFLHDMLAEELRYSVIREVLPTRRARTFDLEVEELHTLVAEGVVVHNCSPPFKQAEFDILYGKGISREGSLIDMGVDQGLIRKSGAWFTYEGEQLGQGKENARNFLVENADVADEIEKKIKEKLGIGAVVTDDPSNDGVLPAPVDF
The assay is described as follows: Fluorescence Cell-Free Homogeneous Dose Retest to Identify Inhibitors of RecA-Intein Splicing Activity. [Related pubchem assays (depositor defined):AID2097, AID2223, AID489010, AID492950]. Type of assay: functional.

Assay [24] is described as follows: inhibitors of intracellular T. cruzi replication, confirmation, NIH3T3 host cells, beta-gal luminescence (AID 2044).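 Also: intracellular parasites grown in NIH/3T3 mouse fibroblasts as host cells; luminescent beta-galactosidase reporter signal from transgenic T. cruzi replicating inside host cells; inhibitors lower the luminescence signal.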 It counts as functional, cell-based.
Assay [25] deals with T2, Heat shock factor protein 1 (Mus musculus, UniProt P38532).
T2 sequence (P38532 whole entry): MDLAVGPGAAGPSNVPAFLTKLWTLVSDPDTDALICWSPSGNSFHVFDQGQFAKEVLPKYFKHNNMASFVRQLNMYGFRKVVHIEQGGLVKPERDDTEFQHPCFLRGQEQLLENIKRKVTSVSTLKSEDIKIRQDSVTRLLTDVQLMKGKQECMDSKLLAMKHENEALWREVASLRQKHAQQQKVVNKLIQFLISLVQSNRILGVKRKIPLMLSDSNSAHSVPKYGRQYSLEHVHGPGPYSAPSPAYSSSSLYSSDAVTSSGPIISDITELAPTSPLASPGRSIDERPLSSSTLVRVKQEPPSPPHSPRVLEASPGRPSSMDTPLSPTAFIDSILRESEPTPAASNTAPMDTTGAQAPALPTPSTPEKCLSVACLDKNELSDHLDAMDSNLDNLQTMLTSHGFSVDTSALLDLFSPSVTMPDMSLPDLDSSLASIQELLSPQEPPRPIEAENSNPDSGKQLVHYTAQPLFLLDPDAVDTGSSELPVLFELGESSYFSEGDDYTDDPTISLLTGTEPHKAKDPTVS
The assay is described as follows: inhibition of MG132-induced HSE-luciferase signal, confirmation, cell-based, NIH3T3, luminescence, dose retest (AID 2382).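 Also: NIH3T3 fibroblasts with HSF1-driven luciferase reporter stressed by proteasome inhibitor MG132; luminescence from HSF1-driven luciferase expression after 8 hours of MG132 stress.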 It counts as functional.

Assay [26] deals with CHO. The assay is described as follows: cytotoxicity in TLR9-MyD88 CHO cells, dose response, cytotoxicity control for TLR9-MyD88 binding inhibitor project, cell-based, luminescence (AID 588339).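 Also: CHO cells stably coexpressing TLR9 and MyD88 fusions from primary screen; compound exposure lasted 48 hours before viability readout.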 It counts as functional, hamster. The note with it: Cricetulus griseus.
The target of assay [27] is T3, Replicative DNA helicase DnaB (Mycobacterium tuberculosis, UniProt P9WMR3).
T3 sequence (P9WMR3 whole entry): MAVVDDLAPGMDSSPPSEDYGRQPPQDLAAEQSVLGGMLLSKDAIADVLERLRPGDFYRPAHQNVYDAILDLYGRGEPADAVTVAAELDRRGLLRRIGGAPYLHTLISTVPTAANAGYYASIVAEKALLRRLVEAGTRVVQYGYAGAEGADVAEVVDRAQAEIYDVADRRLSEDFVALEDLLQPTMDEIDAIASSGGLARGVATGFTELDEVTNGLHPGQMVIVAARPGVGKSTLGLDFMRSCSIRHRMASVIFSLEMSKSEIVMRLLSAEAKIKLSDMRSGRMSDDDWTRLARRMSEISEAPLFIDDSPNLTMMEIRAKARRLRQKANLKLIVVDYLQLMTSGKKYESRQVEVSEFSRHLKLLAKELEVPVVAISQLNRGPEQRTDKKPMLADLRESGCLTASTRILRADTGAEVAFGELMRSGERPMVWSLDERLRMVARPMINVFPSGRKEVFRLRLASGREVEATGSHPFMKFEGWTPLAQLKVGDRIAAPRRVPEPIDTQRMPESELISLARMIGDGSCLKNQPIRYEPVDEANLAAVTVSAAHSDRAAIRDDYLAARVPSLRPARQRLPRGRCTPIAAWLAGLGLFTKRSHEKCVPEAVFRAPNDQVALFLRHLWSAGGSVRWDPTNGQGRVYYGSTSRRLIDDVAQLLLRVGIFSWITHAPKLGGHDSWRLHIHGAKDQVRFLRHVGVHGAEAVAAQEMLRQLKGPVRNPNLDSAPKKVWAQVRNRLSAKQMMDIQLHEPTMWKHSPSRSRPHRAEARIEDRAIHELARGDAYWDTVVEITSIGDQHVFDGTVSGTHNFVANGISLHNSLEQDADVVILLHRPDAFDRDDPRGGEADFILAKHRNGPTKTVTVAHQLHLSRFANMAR
The assay can be described thus: DnaB intein splicing inhibitors, dose response, biochemical, cell-free fluorescence (AID 449749). It counts as functional.

The target of assay [28] is Beta Lactamase (Pseudomonas aeruginosa, UniProt Q932Y6). The assay is described as follows: beta-lactamase reporter inhibitor potency, dose response, artefact control for TLR9-MyD88 binding inhibitor project, BLA reporter cells, FRET fluorescence (AID 588341).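 Also: cell based assay in CHO-K1 cells stably expressing beta-lactamase.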 Type of assay: cell-based.
Assay [29] has as its target DNA dC->dU-editing enzyme APOBEC-3G (Homo sapiens, UniProt Q9HC16). The assay is described as follows: APOBEC3G deaminase inhibitors, SAR follow-up, biochemical, fluorescence, single-stranded DNA substrate (AID 602136). It counts as functional. The note with it: read-out: IC50_Mean.
The target in assay [30] is DNA dC->dU-editing enzyme APOBEC-3A (Homo sapiens, UniProt P31941). The assay is described as follows: SAR analysis of small molecule inhibitors of APOBEC3A DNA Deaminase via a fluorescence-based single-stranded DNA deaminase assay. Type of assay: functional. To be noted: read-out: IC50_Mean.
Assay [31] has as its target T4, Insulin-degrading enzyme (Homo sapiens, UniProt P14735). The assay can be described thus: activators of endogenous IDE in HEK cells, dose response, cell-based, fluorescence polarization (AID 588439). Type of assay: functional. For orientation: In fluorescence polarisation assays a small probe gives low polarisation when free and higher when bound to something large.

Assay [32] deals with HEK293. The assay can be described thus: optical interference in Abeta FP readout, dose response, artefact control for IDE activator project, biochemical, fluorescence polarization (AID 588442). It counts as functional, cell-based. To be noted: Homo sapiens.
Assay [33] has as its system HEK293. The assay can be described thus: HEK cell cytotoxicity by LDH release, dose response, cytotoxicity control for IDE activator project, fluorescence, HEK cells (AID 588440).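 Also: cytotoxicity by LDH release measuring loss of membrane integrity.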 It counts as functional, cell-based. The note with it: Homo sapiens. On the technique in general: Release of lactate dehydrogenase indicates damage to the cell membrane.
Assay [34] concerns the target T4, Insulin-degrading enzyme. The assay is described as follows: activators of recombinant IDE enzyme, dose response, counter-screen for IDE activator project, biochemical, fluorescence polarization (AID 588681).

Calls of active or inactive are those of the source.

T4 sequence (P14735 whole entry): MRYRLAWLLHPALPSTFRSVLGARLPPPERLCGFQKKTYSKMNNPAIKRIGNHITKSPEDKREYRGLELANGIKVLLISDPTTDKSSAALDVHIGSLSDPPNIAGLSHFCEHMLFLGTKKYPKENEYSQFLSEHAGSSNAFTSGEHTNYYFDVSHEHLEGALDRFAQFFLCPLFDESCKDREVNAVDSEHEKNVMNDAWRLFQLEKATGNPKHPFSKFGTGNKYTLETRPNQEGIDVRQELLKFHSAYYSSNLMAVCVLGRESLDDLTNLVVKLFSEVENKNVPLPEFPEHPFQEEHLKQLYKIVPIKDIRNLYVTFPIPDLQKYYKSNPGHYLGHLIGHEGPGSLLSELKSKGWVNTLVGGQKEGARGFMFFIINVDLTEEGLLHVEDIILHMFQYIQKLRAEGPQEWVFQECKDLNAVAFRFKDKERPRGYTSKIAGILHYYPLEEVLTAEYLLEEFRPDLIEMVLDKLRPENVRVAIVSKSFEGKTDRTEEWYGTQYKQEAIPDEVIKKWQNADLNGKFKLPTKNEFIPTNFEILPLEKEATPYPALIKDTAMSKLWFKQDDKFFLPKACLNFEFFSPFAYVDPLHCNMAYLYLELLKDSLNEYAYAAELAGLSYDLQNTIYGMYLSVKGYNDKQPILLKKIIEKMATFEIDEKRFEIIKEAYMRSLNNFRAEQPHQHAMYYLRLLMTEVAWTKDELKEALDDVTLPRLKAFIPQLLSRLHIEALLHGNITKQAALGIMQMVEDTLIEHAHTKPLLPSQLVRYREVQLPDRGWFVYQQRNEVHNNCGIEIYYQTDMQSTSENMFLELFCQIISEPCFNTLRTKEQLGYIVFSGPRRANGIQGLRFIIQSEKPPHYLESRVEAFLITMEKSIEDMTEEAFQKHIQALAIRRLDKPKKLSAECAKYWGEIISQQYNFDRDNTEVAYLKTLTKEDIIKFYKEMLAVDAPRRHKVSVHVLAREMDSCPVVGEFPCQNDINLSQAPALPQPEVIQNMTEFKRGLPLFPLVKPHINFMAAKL
Chain of Paired box protein Pax-8 (Q06710 whole entry): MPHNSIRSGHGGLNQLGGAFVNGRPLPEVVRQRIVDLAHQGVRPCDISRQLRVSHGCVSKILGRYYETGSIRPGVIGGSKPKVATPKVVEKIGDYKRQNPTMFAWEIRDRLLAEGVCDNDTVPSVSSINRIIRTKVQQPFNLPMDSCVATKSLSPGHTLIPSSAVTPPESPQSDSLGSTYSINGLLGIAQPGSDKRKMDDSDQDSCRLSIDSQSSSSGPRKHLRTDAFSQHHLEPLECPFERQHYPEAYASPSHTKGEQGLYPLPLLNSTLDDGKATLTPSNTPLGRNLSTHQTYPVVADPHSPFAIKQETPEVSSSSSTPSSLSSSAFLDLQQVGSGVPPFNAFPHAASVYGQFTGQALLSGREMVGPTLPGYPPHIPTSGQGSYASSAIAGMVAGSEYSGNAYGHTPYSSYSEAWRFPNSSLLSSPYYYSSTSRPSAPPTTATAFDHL
Chain of DNA dC->dU-editing enzyme APOBEC-3A (P31941 whole entry): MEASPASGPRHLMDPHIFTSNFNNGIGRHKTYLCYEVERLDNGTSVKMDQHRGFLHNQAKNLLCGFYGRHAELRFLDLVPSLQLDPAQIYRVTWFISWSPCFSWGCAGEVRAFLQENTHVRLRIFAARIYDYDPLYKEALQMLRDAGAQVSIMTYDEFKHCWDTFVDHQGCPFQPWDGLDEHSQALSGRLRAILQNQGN
Chain of DNA dC->dU-editing enzyme APOBEC-3G (Q9HC16 whole entry): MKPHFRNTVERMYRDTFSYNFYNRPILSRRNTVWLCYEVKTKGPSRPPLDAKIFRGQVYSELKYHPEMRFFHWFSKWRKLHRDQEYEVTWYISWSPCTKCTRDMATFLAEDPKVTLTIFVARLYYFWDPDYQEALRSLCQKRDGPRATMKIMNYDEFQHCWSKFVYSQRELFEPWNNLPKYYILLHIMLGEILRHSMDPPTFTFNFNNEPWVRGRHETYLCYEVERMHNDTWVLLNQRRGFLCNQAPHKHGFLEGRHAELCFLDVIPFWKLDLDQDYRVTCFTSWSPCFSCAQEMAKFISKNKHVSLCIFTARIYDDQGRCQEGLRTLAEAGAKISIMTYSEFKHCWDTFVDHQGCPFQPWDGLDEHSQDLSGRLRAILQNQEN
Chain of Vascular endothelial growth factor receptor 2 (P35968 whole entry): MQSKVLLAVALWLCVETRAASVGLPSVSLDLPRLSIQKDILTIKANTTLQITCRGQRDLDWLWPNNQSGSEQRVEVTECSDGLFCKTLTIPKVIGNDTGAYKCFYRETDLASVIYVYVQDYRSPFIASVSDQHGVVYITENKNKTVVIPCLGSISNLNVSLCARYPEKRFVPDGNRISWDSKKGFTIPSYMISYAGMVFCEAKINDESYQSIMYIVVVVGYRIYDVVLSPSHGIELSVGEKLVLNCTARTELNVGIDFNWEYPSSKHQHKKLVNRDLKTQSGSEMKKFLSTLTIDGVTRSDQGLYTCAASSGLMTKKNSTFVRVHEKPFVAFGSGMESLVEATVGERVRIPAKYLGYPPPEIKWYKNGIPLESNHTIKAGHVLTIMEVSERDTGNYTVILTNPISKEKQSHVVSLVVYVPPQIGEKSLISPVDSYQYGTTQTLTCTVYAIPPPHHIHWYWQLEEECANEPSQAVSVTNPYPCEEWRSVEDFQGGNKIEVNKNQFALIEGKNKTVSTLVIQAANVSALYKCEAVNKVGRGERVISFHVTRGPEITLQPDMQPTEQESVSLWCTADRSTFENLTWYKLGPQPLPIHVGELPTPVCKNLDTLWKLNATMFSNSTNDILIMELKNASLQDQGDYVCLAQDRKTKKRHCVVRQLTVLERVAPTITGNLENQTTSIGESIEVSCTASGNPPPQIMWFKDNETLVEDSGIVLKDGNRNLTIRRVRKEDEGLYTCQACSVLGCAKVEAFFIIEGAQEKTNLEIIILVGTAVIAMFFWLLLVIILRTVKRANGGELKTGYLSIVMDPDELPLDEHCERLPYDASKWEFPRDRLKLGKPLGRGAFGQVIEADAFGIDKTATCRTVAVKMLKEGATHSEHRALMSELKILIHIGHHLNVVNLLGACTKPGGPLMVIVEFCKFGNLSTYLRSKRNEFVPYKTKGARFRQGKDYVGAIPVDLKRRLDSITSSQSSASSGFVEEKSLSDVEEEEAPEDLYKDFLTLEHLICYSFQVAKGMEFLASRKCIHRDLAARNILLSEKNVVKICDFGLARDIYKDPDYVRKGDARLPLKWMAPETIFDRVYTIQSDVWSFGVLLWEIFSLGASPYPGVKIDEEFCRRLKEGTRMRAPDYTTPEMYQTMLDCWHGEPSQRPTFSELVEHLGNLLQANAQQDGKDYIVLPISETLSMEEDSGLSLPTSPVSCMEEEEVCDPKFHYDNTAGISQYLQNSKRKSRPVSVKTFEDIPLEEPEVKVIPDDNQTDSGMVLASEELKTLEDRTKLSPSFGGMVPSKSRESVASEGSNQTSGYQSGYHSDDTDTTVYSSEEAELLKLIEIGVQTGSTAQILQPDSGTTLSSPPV
Chain of Mitogen-activated protein kinase 14 (Q16539 whole entry): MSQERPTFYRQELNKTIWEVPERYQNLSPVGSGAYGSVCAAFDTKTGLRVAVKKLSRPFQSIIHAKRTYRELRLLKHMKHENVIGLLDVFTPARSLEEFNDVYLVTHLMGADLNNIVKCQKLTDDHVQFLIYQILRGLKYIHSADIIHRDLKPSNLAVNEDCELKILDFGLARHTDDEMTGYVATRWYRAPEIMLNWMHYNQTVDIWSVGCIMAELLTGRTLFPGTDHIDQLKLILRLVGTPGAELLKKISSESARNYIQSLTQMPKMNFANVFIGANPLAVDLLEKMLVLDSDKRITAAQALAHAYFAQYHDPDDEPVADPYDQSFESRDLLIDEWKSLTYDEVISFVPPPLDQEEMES
Chain of Beta Lactamase (Q932Y6 whole entry): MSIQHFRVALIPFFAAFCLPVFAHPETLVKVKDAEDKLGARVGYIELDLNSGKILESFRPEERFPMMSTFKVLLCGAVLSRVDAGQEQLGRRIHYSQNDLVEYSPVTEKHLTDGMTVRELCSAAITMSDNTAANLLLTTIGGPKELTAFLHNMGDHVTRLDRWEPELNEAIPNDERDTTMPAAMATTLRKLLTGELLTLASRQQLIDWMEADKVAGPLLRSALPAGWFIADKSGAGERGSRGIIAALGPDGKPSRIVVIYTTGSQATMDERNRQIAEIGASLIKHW
Chain of Protein kinase C theta type (Q04759 whole entry): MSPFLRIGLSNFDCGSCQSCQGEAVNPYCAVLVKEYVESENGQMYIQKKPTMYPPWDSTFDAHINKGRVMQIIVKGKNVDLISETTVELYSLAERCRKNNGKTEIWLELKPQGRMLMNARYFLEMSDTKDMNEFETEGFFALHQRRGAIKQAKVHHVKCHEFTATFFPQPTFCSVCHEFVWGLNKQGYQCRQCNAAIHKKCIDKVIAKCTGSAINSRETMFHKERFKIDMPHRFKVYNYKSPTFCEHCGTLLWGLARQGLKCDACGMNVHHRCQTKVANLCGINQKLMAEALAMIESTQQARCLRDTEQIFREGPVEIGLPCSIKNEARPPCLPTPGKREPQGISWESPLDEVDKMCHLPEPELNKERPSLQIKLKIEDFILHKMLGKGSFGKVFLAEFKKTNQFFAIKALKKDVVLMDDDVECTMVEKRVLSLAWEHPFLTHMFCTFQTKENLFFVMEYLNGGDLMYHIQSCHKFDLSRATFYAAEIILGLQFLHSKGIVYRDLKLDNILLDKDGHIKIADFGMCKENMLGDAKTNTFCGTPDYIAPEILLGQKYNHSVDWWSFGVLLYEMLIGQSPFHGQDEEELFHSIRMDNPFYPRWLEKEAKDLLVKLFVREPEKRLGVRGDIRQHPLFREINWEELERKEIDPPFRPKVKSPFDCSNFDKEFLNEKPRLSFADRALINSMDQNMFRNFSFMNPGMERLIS

Consider `CN1CCN(Cc2ccc3c(c2)-c2n[nH]c(=O)c4cccc(c24)O3)CC1`, for which the Ki (usually the dissociation constant of the complex between target and ligand, obtained from inhibition or displacement) is 3.16 µM (active) in assay [1] and 5.01 µM (active) in assay [2].

`C(=Cc1ccc2nccn2n1)c1ccccc1`: the Ki in [3] was 100 µM (active); in assay [4] it was > 100 µM (inactive); in assay [5] it was > 100 µM (inactive); in assay [6] it was 12.6 µM (active); in assay [7], 5.01 µM (active); in assay [8] it was > 63.1 µM (inactive). In addition, the Ki in [9] is > 100 µM (inactive); in [10], > 100 µM (inactive); in assay [11] it was 3.98 µM (active); in assay [12], > 79.4 µM (inactive); in assay [13] it was 3.98 µM (active); in [14], > 63.1 µM (inactive). Also, the figures for the inhibitory constant (Ki) in assay [15] and in assay [16] were 7.94 µM (active) and > 79.4 µM (inactive), respectively.

As for `COC1/C=C/C=C(\C)Cc2cc(O)c(Cl)c(c2)N(C)C(=O)CC(OC(=O)C(C)C)C2(C)OC2C(C)C2CC1(O)NC(=O)O2` (centres undefined), the EC50 in assay [17] and in [19] was > 59.7 µM (inactive) each time. Also, the AC50 – broadly, the midpoint of the concentration-response curve, whichever way the signal moves – in [18] was 9.59 µM (active). Also, the half-maximal cytotoxic concentration (CC50) (usually the concentration that lowers cell viability or growth by half) in [20] was < 0.05 µM (active).

For the compound `Cn1c(=O)c([N+](=O)[O-])c(Cl)c2ccccc21`, the EC50 (as a rule, the concentration needed to bring the measured effect to its halfway point) in assay [21] is 3.97 µM (active); in assay [23] it was 4.25 µM (active); in [24], 1.87 µM (active); in [25], 4.3 µM (active). Moreover, the results for the AC50 in assay [22] and in [27] were 6.65 µM (active) and 5.18 µM (active), respectively. Also, the figures for the IC50 in assay [26] and in assay [28] were 1.18 µM (active) and 17.8 µM (inactive), respectively.

`COc1ccc2c(Cl)c(-c3nnc(SCC(=O)c4ccc(F)cc4)n3C)sc2c1`: the IC50 in [29] and in [30] was > 99 µM (inactive) throughout.

`CCCCCc1nnc(NC(=O)C2CCCO2)s1` (centres undefined): the EC50 in assay [31], in [32] and in [34] was > 54.7 µM (inactive) in each case. Further, in assay [33], the IC50 was > 89.1 µM (inactive).
